Assay: DPPH (2,2-diphenyl-1-picrylhydrazyl) radical scavenging antioxidant test in vitro
Type: biochemical
Conditions: 517 nm; for Inhibition (radical scavenging inhibition): 0.2 mL DPPH (0.75 mM), compound 3 μM in ethanol, 30 min incubation in the dark
Procedure: The antioxidant properties of the 8-(3-chlorobenzylideneamino)naphthalene-1,3-disulfonic acid were studied by adding 0.2 mL DPPH (0.75 mM)) to compound 8-(3-chlorobenzylideneamino)naphthalene-1,3-disulfonic acid (III) (3 μM) in ethanol. After 30 min of incubation in the dark, the absorbance was read against a blank at 517 nm. Ascorbic acid (vitamin C) was used as standard antioxidants (positive control). A blank sample was prepared by 0.2 ml of DPPH in 3 ml ethanol. A negative control sample was run using ethanol instead of the sample. The radical scavenging inhibition was calculated using the following equation: […]
The antioxidant activity for the synthesized compound is listed in Table 1, using Vitamin C as a reference.

SMILES | Inhibition (radical scavenging inhibition) | antioxidant potential in DPPH test, in words (DPPH in vitro test, vitamin C as positive control)
O=S(=O)(O)c1cc(S(=O)(=O)O)c2c(/N=C/c3cccc(Cl)c3)cccc2c1 [Product III, 8-(3-chlorobenzylideneamino)naphthalene-1,3-disulfonic acid] | 50% | high potential as an antioxidant compared to vitamin C
O=C1O[C@H]([C@@H](O)CO)C(O)=C1O [vit c, Ascorbic acid, reference compound] | 74% | 
